Source: patent US10308689B2, “Dengue virus (DV) polypeptide sequences, T cell epitopes and methods and uses thereof” (LA JOLLA INSTITUTE FOR ALLERGY AND IMMUNOLOGY, priority 2010, dated 2019)
Ends that are not written are not given here.

Test system: PBMC of healthy adult blood donors from Colombo, Sri Lanka
Test: Ex vivo IFNγ ELISPOT, HLA-matched PBMC of Sri Lankan blood donors
Type: cell-based, human
Parameters: Total Response per epitope: unit not given here
Details: for # donors responded: number of donors responding to the epitope; for T cell response [SFC]: ex vivo IFNγ SFC/10^6 PBMC; for # of responders: responding donors, HLA allele(s)
[1] = restricting HLA allele and serotype as given
[2] = total over responding donors, restricting HLA allele and serotype as given
[3] = IFNγ ELISPOT response summed over responding donors, per epitope
[4] = HLA-matched PBMC, proteome-wide screen
[5] = HLA allele, supertype and serotype
[6] = summed IFNγ ELISPOT response per epitope, HLA allele and serotype as given

Row | Compound | # donors responded [1] | Total Response per epitope [2] | Total Response per epitope [3] | # donors responded [4] | other results
1 | CC[C@H](C)[C@H](N)C(=O)NCC(=O)N[C@H](C(=O)NCC(=O)N[C@H](C(=O)N[C@@H](CC(C)C)C(=O)N[C@@H](CC(C)C)C(=O)N[C@H](C(=O)N[C@@H](Cc1c[nH]c2ccccc12)C(=O)O)[C@@H](C)O)[C@@H](C)CC)[C@@H](C)CC | 1 | 525.0 |  |  | 
2 | CC[C@H](C)[C@H](NC(=O)[C@H](CO)NC(=O)[C@H](CC(C)C)NC(=O)[C@@H](NC(=O)[C@@H]1CCCN1C(=O)[C@@H](N)CO)[C@@H](C)CC)C(=O)N[C@H](C(=O)N[C@H](C(=O)N[C@@H](CO)C(=O)N[C@@H](CCC(=O)O)C(=O)O)[C@@H](C)CC)[C@@H](C)O |  |  | 1068.3 | 6 | 
3 | GAMLFLISGK | 1 | 23.3 |  |  | 
4 | CSCC[C@H](NC(=O)[C@H](CC(C)C)NC(=O)[C@H](CO)NC(=O)[C@H](Cc1c[nH]c2ccccc12)NC(=O)[C@H](CCSC)NC(=O)[C@H](CCC(N)=O)NC(=O)[C@H](C)NC(=O)[C@@H](N)Cc1ccc(O)cc1)C(=O)N[C@@H](Cc1ccc(O)cc1)C(=O)O |  |  | 38.3 | 1 | 
5 | CC[C@H](C)[C@H](N)C(=O)N[C@H](C(=O)N[C@@H](CC(C)C)C(=O)N[C@@H](CC(C)C)C(=O)N[C@@H](CS)C(=O)N[C@@H](CC(C)C)C(=O)N[C@H](C(=O)N1CCC[C@H]1C(=O)N[C@H](C(=O)N[C@H](C(=O)O)C(C)C)[C@@H](C)O)[C@@H](C)CC)[C@@H](C)O | 1 | 63.3 |  |  | 
6 | SEMAEALKGM |  |  | 30.0 | 1 | 
7 | CC[C@H](C)[C@H](NC(=O)[C@@H](NC(=O)[C@H](CO)NC(=O)[C@@H]1CCCN1C(=O)[C@@H](N)CCSC)C(C)C)C(=O)N[C@@H](CCC(=O)O)C(=O)N[C@@H](CCCCN)C(=O)N[C@@H](CCSC)C(=O)N[C@@H](CCC(=O)O)C(=O)N[C@H](C(=O)O)[C@@H](C)O |  |  | 783.3 | 2 | 
8 | CC(C)C[C@H](N)C(=O)N1CCC[C@H]1C(=O)N[C@@H](CCC(=O)O)C(=O)N[C@@H](CCC(=O)O)C(=O)N[C@@H](CCC(N)=O)C(=O)N[C@@H](CC(=O)O)C(=O)N[C@@H](CCC(N)=O)C(=O)N[C@@H](CC(N)=O)C(=O)N[C@@H](Cc1ccc(O)cc1)C(=O)O |  |  | 1166.7 | 5 | 
9 | CSCC[C@H](NC(=O)[C@H](Cc1ccc(O)cc1)NC(=O)[C@@H]1CCCN1C(=O)[C@H](CC(N)=O)NC(=O)[C@H](CC(C)C)NC(=O)[C@@H](N)C(C)C)C(=O)N1CCC[C@H]1C(=O)N[C@@H](CO)C(=O)N[C@H](C(=O)O)C(C)C |  |  | 41.7 | 1 | 
10 | CC[C@H](C)[C@H](NC(=O)[C@H](CO)NC(=O)[C@H](CCCCN)NC(=O)[C@H](CCCNC(=N)N)NC(=O)CNC(=O)[C@H](CO)NC(=O)[C@H](C)NC(=O)[C@@H](N)Cc1ccccc1)C(=O)N[C@H](C(=O)N[C@@H](CC(C)C)C(=O)O)[C@@H](C)O | 1 | 26.7 |  |  | 
11 | CC[C@H](C)[C@H](NC(=O)[C@H](Cc1ccccc1)NC(=O)[C@H](C)NC(=O)[C@@H](N)CCSC)C(=O)N[C@@H](C)C(=O)N[C@@H](Cc1ccccc1)C(=O)N[C@@H](CC(C)C)C(=O)N[C@@H](CCCNC(=N)N)C(=O)N[C@@H](Cc1ccccc1)C(=O)O |  |  | 146.7 | 2 | 
12 | CLIPTAMAF | 1 | 66.7 |  |  | T cell response [SFC] (per epitope): 67 SFC; # of responders: 1
13 | CC[C@H](C)[C@H](NC(=O)[C@@H](NC(=O)[C@@H]1CCCN1C(=O)[C@@H](N)CO)[C@@H](C)CC)C(=O)N[C@@H](CC(N)=O)C(=O)N[C@@H](CCCNC(=N)N)C(=O)N[C@@H](CCC(=O)O)C(=O)NCC(=O)N[C@@H](CCCCN)C(=O)N[C@H](C(=O)O)C(C)C |  |  | 106.7 | 1 | 
14 | RFLEFEALGF |  |  | 181.7 | 1 | 
15 | CC(C)C[C@H](NC(=O)[C@H](CCCNC(=N)N)NC(=O)[C@H](Cc1c[nH]cn1)NC(=O)[C@H](CC(=O)O)NC(=O)[C@H](CS)NC(=O)[C@H](CC(C)C)NC(=O)[C@H](CCC(N)=O)NC(=O)[C@@H](NC(=O)[C@H](Cc1ccc(O)cc1)NC(=O)[C@@H](N)C(C)C)[C@@H](C)O)C(=O)O |  |  |  |  | # donors responded [5]: 1; Total Response per epitope [6]: 21.7
16 | REDLWCGSL |  |  | 96.7 | 1 | 
17 | CC(C)C[C@H](NC(=O)[C@@H](NC(=O)[C@H](C)NC(=O)[C@H](CCC(=O)O)NC(=O)CNC(=O)[C@H](CCC(N)=O)NC(=O)[C@@H](NC(=O)[C@@H]1CCCN1C(=O)[C@@H](N)CS)[C@@H](C)O)C(C)C)C(=O)O | 2 | 385.0 |  |  | 
18 | LPVWLAHKVA |  |  | 23.3 | 1 | T cell response [SFC] (per epitope): 23 SFC; # of responders: 1
19 | CC[C@H](C)[C@H](NC(=O)[C@H](Cc1ccc(O)cc1)NC(=O)CNC(=O)[C@H](CCCNC(=N)N)NC(=O)[C@H](C)NC(=O)[C@H](C)NC(=O)[C@@H](NC(=O)[C@H](CO)NC(=O)[C@H](C)NC(=O)[C@@H]1CCCN1)[C@@H](C)CC)C(=O)O |  |  | 611.7 | 2 | 

Row | Compound | # donors responded [1] | Total Response per epitope [2] | Total Response per epitope [3] | # donors responded [4] | other results
20 | LATGPVLTLW | 1 | 745.0 |  |  | T cell response [SFC] (per epitope): 745 SFC; # of responders: 1
21 | HPGAGKTKRY | 10 | 3046.7 |  |  | T cell response [SFC] (per epitope): 3047 SFC; # of responders: 10
22 | CC[C@H](C)[C@H](NC(=O)[C@H](CC(C)C)NC(=O)[C@H](CC(C)C)NC(=O)[C@@H](N)CCSC)C(=O)N[C@@H](CC(C)C)C(=O)N[C@@H](CS)C(=O)N[C@H](C(=O)N[C@H](C(=O)N[C@@H](CCC(N)=O)C(=O)N[C@H](C(=O)O)C(C)C)[C@@H](C)O)C(C)C |  |  | 43.3 | 1 | 
23 | CC(C)[C@H](NC(=O)CNC(=O)[C@H](CO)NC(=O)[C@@H](N)CCC(N)=O)C(=O)N[C@@H](CC(=O)O)C(=O)N[C@H](C(=O)N[C@@H](Cc1ccccc1)C(=O)N[C@@H](Cc1ccccc1)C(=O)N[C@H](C(=O)N1CCC[C@H]1C(=O)O)[C@@H](C)O)C(C)C |  |  | 103.3 | 1 | 
24 | CSCC[C@H](NC(=O)[C@H](C)NC(=O)CNC(=O)[C@H](CCC(=O)O)NC(=O)[C@@H](N)CCC(N)=O)C(=O)N[C@@H](Cc1c[nH]cn1)C(=O)N[C@@H](CO)C(=O)N[C@@H](C)C(=O)N[C@@H](CC(C)C)C(=O)O [QEGAMHSAL] |  |  | 48.3 | 1 | 
25 | CC[C@H](C)[C@H](NC(=O)[C@H](C)NC(=O)[C@H](C)NC(=O)[C@H](CCSC)NC(=O)[C@@H](NC(=O)[C@@H](NC(=O)[C@@H](N)Cc1ccccc1)[C@@H](C)O)[C@@H](C)CC)C(=O)N[C@@H](CC(C)C)C(=O)N[C@@H](C)C(=O)N[C@@H](Cc1ccc(O)cc1)C(=O)O | 2 | 675.0 |  |  | 
26 | CSCC[C@H](NC(=O)[C@H](CCC(N)=O)NC(=O)[C@H](C)NC(=O)[C@@H](N)Cc1ccc(O)cc1)C(=O)N[C@@H](Cc1c[nH]c2ccccc12)C(=O)N[C@@H](CO)C(=O)N[C@@H](CC(C)C)C(=O)N[C@@H](CCSC)C(=O)N[C@@H](Cc1ccc(O)cc1)C(=O)N[C@@H](Cc1ccccc1)C(=O)O |  |  | 33.3 | 1 | 
27 | GPLVAGGLL | 3 | 748.3 |  |  | 
28 | EPISYDPKF | 1 | 340.0 |  |  | 
29 | C[C@H](NC(=O)[C@@H](N)Cc1c[nH]c2ccccc12)C(=O)N[C@@H](Cc1ccc(O)cc1)C(=O)N[C@@H](Cc1c[nH]cn1)C(=O)NCC(=O)N[C@@H](CO)C(=O)N[C@@H](Cc1ccc(O)cc1)C(=O)N[C@@H](CCC(=O)O)C(=O)N[C@H](C(=O)O)[C@@H](C)O |  |  |  |  | # donors responded [5]: 3; Total Response per epitope [6]: 1220.0
30 | DTTPFGOOR |  |  |  |  | T cell response [SFC] (per epitope): 3260 SFC; # of responders: 8
31 | TPFGIIPAL |  |  |  |  | # of responders: 1
32 | CC[C@H](C)[C@H](NC(=O)[C@H](CC(C)C)NC(=O)[C@H](CS)NC(=O)[C@H](CC(C)C)NC(=O)[C@H](CC(C)C)NC(=O)[C@@H](N)[C@@H](C)O)C(=O)N1CCC[C@H]1C(=O)N[C@H](C(=O)N[C@H](C(=O)O)C(C)C)[C@@H](C)O |  | 53.3 |  |  | 
33 | GFFLRKLTSR | 1 | 81.7 |  |  | 
34 | CSCC[C@H](N)C(=O)N[C@H](C(=O)N[C@@H](CCC(N)=O)C(=O)N[C@@H](CCCCN)C(=O)N[C@@H](C)C(=O)N[C@@H](CCCNC(=N)N)C(=O)N[C@@H](CC(N)=O)C(=O)N[C@@H](C)C(=O)N[C@@H](CC(C)C)C(=O)O)[C@@H](C)O [MTQKARNAL] |  |  | 268.3 | 2 | 
35 | IETTILDVDL |  |  | 1413.3 | 2 | 
36 | CC(C)C[C@H](NC(=O)[C@H](CC(C)C)NC(=O)[C@@H](NC(=O)[C@H](C)NC(=O)[C@H](C)NC(=O)[C@@H](NC(=O)[C@H](CC(C)C)NC(=O)[C@@H](N)[C@@H](C)O)[C@@H](C)O)C(C)C)C(=O)N[C@@H](CC(C)C)C(=O)N[C@H](C(=O)O)C(C)C |  |  | 66.7 | 1 | 
37 | CSCC[C@H](NC(=O)[C@@H](NC(=O)[C@@H](N)Cc1ccccc1)[C@@H](C)O)C(=O)N[C@@H](CCCNC(=N)N)C(=O)N[C@@H](Cc1c[nH]cn1)C(=O)N[C@@H](CCCCN)C(=O)N[C@@H](CCCCN)C(=O)N[C@@H](C)C(=O)N[C@H](C(=O)N[C@@H](Cc1ccc(O)cc1)C(=O)O)[C@@H](C)O | 4 | 1723.3 |  |  | T cell response [SFC] (per epitope): 1723 SFC; # of responders: 4
38 | FLMVLLIPEP | 1 | 28.3 |  |  | 
